# Assay results from patent US9296778B2, “3′,5′-cyclic phosphate prodrugs for HCV infection” (Idenix Pharmaceuticals, Inc., priority 2012, dated 2016).
# Where two headings read alike, the source gives them in different places.
# Experiments:
# HCV genotype 1b replicon = assay: HCV Replicon Assay; type: cell-based; details: Zluc cells (Huh-7-derived, HCV genotype 1b replicon, luciferase reporter), 72 hours, read-out: HCV Replicon EC50
# Method: Huh-7-derived cell line (Zluc) that harbors an HCV genotype 1b replicon and a luciferase reporter gene was grown in Dulbecco's Modified Eagle Medium (DMEM) supplemented with 10% fetal bovine serum, 2 mM GlutaMAX, 1% MEM nonessential amino acids, 100 IU/mL penicillin, 100 μg/mL streptomycin, and 0.5 mg/mL Geneticin® (G418). For dose response testing the cells were seeded in 96-well plates at 7.5×10^3 cells per well in a volume of 50 μL, and incubated at 37° C./5% CO2. Drug solutions were made up freshly in Huh-7 media as 2× stocks. Ten additional 5-fold dilutions were prepared from these stocks in DMEM without G418. At least three hours after Zluc cells were seeded, drug treatment was initiated by adding 50 μL of drug dilutions to the plates in duplicate. Final concentrations of drug ranged from 100 μM to […]. Cells were then incubated at 37° C./5% CO2. Alternatively, compounds were tested at two concentrations (1 μM and 10 μM). […] For this, media was removed from the plates via gentle tapping. Fifty microliters of ONE-glo luciferase assay reagent was added to each well. The plates were shaken gently for 3 min at room temperature and luminescence was measured on a Victor^3 V 1420 multilabel counter (Perkin Elmer) with a 1 second read time using a 700 nm cut-off filter. The EC50 values were calculated from dose response curves from the resulting best-fit equations determined by Microsoft Excel and XLfit 4.1 software. When screening at two fixed concentrations, the results were expressed as % inhibition at 1 μM and 10 μM.
# Zluc cells = assay: cytotoxicity evaluation (CellTiter-Blue Cell Viability Assay); details: read-out: HCV Replicon CC50; Zluc cells, CellTiter-Blue
# fresh human hepatocytes = assay: Release of active metabolite in fresh human hepatocytes; type: in vitro ADME; details: 10 μM compound; for FHH TP Cmax: fresh human hepatocytes; for FHH TP AUC: fresh human hepatocytes, 6, 24 and 48 hours
# Method: Plates of fresh human and mouse hepatocytes were obtained on ice. The medium was removed and replaced with hepatocyte culture medium (William's E supplemented with penicillin-streptomycin, 1% L-glutamine, 1% insulin-transferrin-selenium and 0.1 μM Dexamethasone (Invitrogen) or with Invitro GRO HI medium complemented with Torpedo antibiotics (Celsis)). Cells were left overnight in an incubator at 37° C. to acclimatize to culture and the medium.
# Hepatocyte incubations were conducted at a final volume of 0.5 mL hepatocyte culture medium/well (0.8 million cells/well for human and 0.5 million cells/well for mouse; 12 well plate no overlay, collagen coat). Culture medium from overnight incubation of cells was removed and replaced with fresh medium, pre-warmed to 37° C., containing 10 μM of test compound from a stock solution in DMSO (final DMSO concentration was 0.1%). At each specific time point, incubation medium was removed and cell monolayers were carefully washed two times with ice-cold PBS. Following the last wash, all PBS was carefully removed and 1.0 mL of extraction solution (ice-cold 70% methanol/30% water) added. Cells were scraped off and suspended in the extraction solution, transferred to 2 mL polypropylene microfuge tubes and intracellular contents extracted overnight at −20° C.
# After the overnight treatment the cellular extracts were prepared by centrifugation at 16,000×g for 10 min to remove cellular debris. The remaining sample was then dried using a refrigerated centrivap concentrator. Dry extracts were reconstituted in 1000 μL of HPLC-grade water and centrifuged at 16,000×g for 10 min. Aliquots (100 μL each) of the supernatant were transferred into a 96 well plate and internal standard (4 ng/mL final concentration) was added as the internal standard (IS) for LC-MS/MS analysis.
# The incubation time points were 6, 24 and 48 hours for human hepatocytes and 1, 4, 8, 12 and 24 hours for mouse hepatocytes.
# in vitro = details: human, HCV Replicon CC50, Zluc cells, CellTiter-Blue
Structure (SMILES),EC50 (HCV genotype 1b replicon),CC50 (Zluc cells),FHH TP Cmax (fresh human hepatocytes),FHH TP AUC (fresh human hepatocytes),"EC50 (HCV genotype 1b replicon; Hepatitis C virus, 72 h)",CC50 (in vitro)
"CC(C)(CO)C(=O)SCCOP1(=O)OC[C@H]2O[C@@H](n3cnc4c(=O)[nH]c(N)nc43)[C@](C)(F)[C@@H]2O1 (single isomer, unassigned; diastereomer 1) [Compound 17 Diastereomer 1]",250 to 1000 nM,> 50000 nM,,,,
"CCOc1nc(N)nc2c1ncn2[C@@H]1O[C@@H]2COP(=O)(OCCC(=O)OC(C)C)O[C@H]2[C@@]1(C)O (single isomer, unassigned; diastereomer 1) [Compound 22 Diastereomer 1]",< 250 nM,> 50000 nM,44 pmol/mill cells,1247 pmol · hr/mill cells,,
CCOC(=O)C[C@@H](C)OP1(=O)OC[C@H]2O[C@@H](n3cnc4c(OC)nc(N)nc43)[C@](C)(O)[C@@H]2O1 (stereo partly drawn) [Compound 31],,,,,250 to 1000 nM,> 50000 nM
CCOC(=O)[C@@H](C)OP1(=O)OC[C@H]2O[C@@H](n3cnc4c(OC)nc(N)nc43)C(C)(O)[C@@H]2O1 (stereo partly drawn) [Compound 30],,,,,1000 to 10000 nM,> 50000 nM
COc1nc(N)nc2c1ncn2[C@@H]1O[C@@H]2COP(=O)(OCC(=O)OC(C)C)O[C@H]2[C@@]1(C)OC(C)=O (stereo partly drawn) [Compound 32],,,,,< 250 nM,< 50000 nM
"CCOc1nc(N)nc2c1ncn2[C@@H]1O[C@@H]2COP(=O)(OC[C@H](C)NC(=O)OCC(C)C)O[C@H]2[C@@]1(C)F (single isomer, unassigned; diastereomer 1) [Compound 12 Diastereomer 1]",< 250 nM,> 50000 nM,,,,
"CC(=O)OCC(C)(C)C(=O)SCCOP1(=O)OC[C@H]2O[C@@H](n3cnc4c(=O)[nH]c(N)nc43)[C@](C)(F)[C@@H]2O1 (single isomer, unassigned; diastereomer 1) [Compound 18 Diastereomer 1]",250 to 1000 nM,> 50000 nM,,,,
CCOC(=O)OC(C)OP1(=O)OC[C@H]2O[C@@H](n3cnc4c(OC)nc(N)nc43)[C@](C)(O)[C@@H]2O1 (stereo partly drawn) [Compound 34],,,,,< 250 nM,< 50000 nM
CCOc1nc(N)nc2c1ncn2[C@@H]1O[C@@H]2COP(=O)(OC[C@H](NC(=O)OC)C(=O)OC(C)C)O[C@H]2[C@@]1(C)F (stereo partly drawn) [Compound 15],,,36 pmol/mill cells,1335 pmol · hr/mill cells,< 250 nM,> 50000 nM
"CC(C)(CO)C(=O)SCCOP1(=O)OC[C@H]2O[C@@H](n3cnc4c(=O)[nH]c(N)nc43)[C@](C)(F)[C@@H]2O1 (single isomer, unassigned; diastereomer 2) [Compound 17 Diastereomer 2]",< 250 nM,< 50000 nM,,,,
"CCOc1nc(N)nc2c1ncn2[C@@H]1O[C@@H]2COP(=O)(OCCSC(=O)C(C)(C)COC(C)=O)O[C@H]2[C@@]1(C)OC(C)=O (single isomer, unassigned; diastereomer 2) [Compound 19 Diastereomer 2]",< 250 nM,< 50000 nM,,,,
"COc1nc(N)nc2c1ncn2[C@@H]1O[C@@H]2COP(=O)(OCC(=O)OC(C)C)O[C@H]2[C@@]1(C)F (single isomer, unassigned; diastereomer 1) [Compound 26 Diastereomer 1]",,,BLD^a,BLD^a,,
COc1nc(N)nc2c1ncn2[C@@H]1O[C@@H]2COP(=O)(OCC(=O)OC(C)C)O[C@H]2[C@@]1(C)F (stereo partly drawn) [Compound 26],,,,,< 250 nM,> 50000 nM
"CCOC(=O)COP1(=O)OC[C@H]2O[C@@H](n3cnc4c(OCC)nc(N)nc43)[C@](C)(F)[C@@H]2O1 (single isomer, unassigned; diastereomer 2) [Compound 7 Diastereomer 2]",< 250 nM,,,,,
CCOc1nc(N)nc2c1ncn2[C@@H]1O[C@@H]2COP(=O)(OCCC(=O)OC(C)C)O[C@H]2[C@@]1(C)F (stereo partly drawn) [Compound 21],,,,,< 250 nM,> 50000 nM
COc1nc(N)nc2c1ncn2[C@@H]1O[C@@H]2COP(=O)(OCCSSCCO)O[C@H]2[C@@]1(C)O (stereo partly drawn) [Compound 37],,,,,< 250 nM,< 50000 nM
COc1nc(N)nc2c1ncn2[C@@H]1O[C@@H]2COP(=O)(OCC(=O)OCc3ccccc3)O[C@H]2[C@@]1(C)O (stereo partly drawn) [Compound 27],,,,,< 250 nM,< 50000 nM
CCOC(=O)N[C@@H](C)COP1(=O)OC[C@H]2O[C@@H](n3cnc4c(OCC)nc(N)nc43)[C@](C)(F)[C@@H]2O1 (stereo partly drawn) [Compound 11],,,,,< 250 nM,> 50000 nM
CCOc1nc(N)nc2c1ncn2[C@@H]1O[C@@H]2COP(=O)(OCCCNC(=O)[C@H](O)C(C)(C)CO)O[C@H]2[C@@]1(C)O (stereo partly drawn) [Compound 39],,,,,< 250 nM,< 50000 nM
CCOC(=O)CCCOP1(=O)OC[C@H]2O[C@@H](n3cnc4c(OC)nc(N)nc43)[C@](C)(O)[C@@H]2O1 (stereo partly drawn) [Compound 29],< 250 nM,< 50000 nM,,,,
COc1nc(N)nc2c1ncn2[C@@H]1O[C@@H]2COP(=O)(OCC(=O)OC(C)C)O[C@H]2[C@@]1(C)O (stereo partly drawn) [Compound 28],,,,,< 250 nM,< 50000 nM
"CCOc1nc(N)nc2c1ncn2[C@@H]1O[C@@H]2COP(=O)(OCCSC(=O)C(C)(C)COC(C)=O)O[C@H]2[C@@]1(C)OC(C)=O (single isomer, unassigned; diastereomer 1) [Compound 19 Diastereomer 1]",< 250 nM,< 50000 nM,,,,
CCOc1nc(N)nc2c1ncn2[C@@H]1O[C@@H]2COP(=O)(OCCCNC(=O)[C@@H]3OC(C)(C)OCC3(C)C)O[C@H]2[C@@]1(C)O (stereo partly drawn) [Compound 38],,,,,< 250 nM,> 50000 nM
COC(=O)c1ccccc1COP1(=O)OC[C@H]2O[C@@H](n3cnc4c(OC)nc(N)nc43)[C@](C)(O)[C@@H]2O1 (stereo partly drawn) [Compound 33],,,,,< 250 nM,< 50000 nM
"CC(=O)OCC(C)(C)C(=O)SCCOP1(=O)OC[C@H]2O[C@@H](n3cnc4c(=O)[nH]c(N)nc43)[C@](C)(F)[C@@H]2O1 (single isomer, unassigned; diastereomer 2) [Compound 18 Diastereomer 2]",< 250 nM,< 50000 nM,,,,
CCOC(=O)CCCOP1(=O)OC[C@H]2O[C@@H](n3cnc4c(OC)nc(N)nc43)[C@](C)(O)[C@@H]2O1 (stereo partly drawn) [Compound 25],,,,,250 to 1000 nM,> 50000 nM
"CCOc1nc(N)nc2c1ncn2[C@@H]1O[C@@H]2COP(=O)(OCCSC(=O)C(C)(C)CO)O[C@H]2[C@@]1(C)OC(C)=O (single isomer, unassigned; diastereomer 1) [Compound 16 Diastereomer 1]",< 250 nM,< 50000 nM,,,,
